ChEMBL document CHEMBL1201862, “PubChem BioAssay data set” (2004)
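96-well plates; 48 h exposure; 5 concentrations. Endpoints by linear interpolation between flanking doses. Not reached: highest tested concentration assigned. GI50: concentration for 50% inhibition of growth.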 Calls of active or inactive are those of the source. No stated cut-off is given here; in the data, active = GI50 up to about 1.1 µM and inactive = higher.

Legend:
Test in all cases: inhibition of tumour cell growth, NCI panel, 48 h
SK-MEL-2 = test system: SK-MEL-2
KM12 = test system: KM12
OVCAR-5 = test system: OVCAR-5
CAKI-1 = test system: CAKI-1
HOP-62 = test system: HOP-62
NCI-H226 = test system: NCI-H226
SNB-75 = test system: SNB-75
UACC-62 = test system: UACC-62
SW-620 = test system: SW-620
LXFL 529 = test system: LXFL 529
EKVX = test system: EKVX
OVCAR-8 = test system: OVCAR-8
U-251 = test system: U-251
RXF 631 = test system: RXF 631
786-0 = test system: 786-0
SK-MEL-28 = test system: SK-MEL-28
ACHN = test system: ACHN
KM-20L2 = test system: KM-20L2
A549 = test system: A549
IGROV-1 = test system: IGROV-1
COLO 205 = test system: COLO 205
RPMI-8226 = test system: RPMI-8226
DMS-273 = test system: DMS-273
HT-29 = test system: HT-29
NCI-H460 = test system: NCI-H460
RXF 393 = test system: RXF 393
NCI-H522 = test system: NCI-H522
TK-10 = test system: TK-10
A498 = test system: A498
HOP-92 = test system: HOP-92
SF-268 = test system: SF-268
Malme-3M = test system: Malme-3M
SF-539 = test system: SF-539
DLD-1 = test system: DLD-1
HCT-116 = test system: HCT-116
SNB-78 = test system: SNB-78
SF-295 = test system: SF-295
HCT-15 = test system: HCT-15
LOX IMVI = test system: LOX IMVI
M14 = test system: M14
UO-31 = test system: UO-31
K562 = test system: K562
SNB-19 = test system: SNB-19
HOP-18 = test system: HOP-18
SK-MEL-5 = test system: SK-MEL-5
HCC 2998 = test system: HCC 2998
SK-OV-3 = test system: SK-OV-3
SN12C = test system: SN12C
HL-60 = test system: HL-60
OVCAR-3 = test system: OVCAR-3
M19-MEL = test system: M19-MEL
NCI-H23 = test system: NCI-H23
OVCAR-4 = test system: OVCAR-4
DMS-114 = test system: DMS-114
UACC-257 = test system: UACC-257
MOLT-4 = test system: MOLT-4

CCOC(=O)C(=O)Nc1nc2c(OCC)cccc2s1
GI50 (SK-MEL-2): > 100 µM (inactive)
GI50 (KM12): > 100 µM (inactive)
GI50 (OVCAR-5): > 100 µM (inactive)
GI50 (CAKI-1): > 100 µM (inactive)
GI50 (HOP-62): > 100 µM (inactive)
GI50 (NCI-H226): > 100 µM (inactive)
GI50 (SNB-75): > 100 µM (inactive)
GI50 (UACC-62): > 100 µM (inactive)
GI50 (SW-620): > 100 µM (inactive)
GI50 (LXFL 529): > 100 µM (inactive)
GI50 (EKVX): > 100 µM (inactive)
GI50 (OVCAR-8): > 100 µM (inactive)
GI50 (U-251): > 100 µM (inactive)
GI50 (RXF 631): > 100 µM (inactive)
GI50 (786-0): > 100 µM (inactive)
GI50 (SK-MEL-28): > 100 µM (inactive)
GI50 (ACHN): > 100 µM (inactive)
GI50 (KM-20L2): > 100 µM (inactive)
GI50 (A549): > 100 µM (inactive)
GI50 (IGROV-1): > 100 µM (inactive)
GI50 (COLO 205): > 100 µM (inactive)
GI50 (RPMI-8226): > 100 µM (inactive)
GI50 (DMS-273): > 100 µM (inactive)
GI50 (HT-29): > 100 µM (inactive)
GI50 (NCI-H460): > 100 µM (inactive)
GI50 (RXF 393): > 100 µM (inactive)
GI50 (NCI-H522): > 100 µM (inactive)
GI50 (TK-10): > 100 µM (inactive)
GI50 (A498): > 100 µM (inactive)
GI50 (HOP-92): > 100 µM (inactive)
GI50 (SF-268): > 100 µM (inactive)
GI50 (Malme-3M): > 100 µM (inactive)
GI50 (SF-539): > 100 µM (inactive)
GI50 (DLD-1): > 100 µM (inactive)
GI50 (HCT-116): > 100 µM (inactive)
GI50 (SNB-78): > 100 µM (inactive)
GI50 (SF-295): > 100 µM (inactive)
GI50 (HCT-15): > 100 µM
GI50 (LOX IMVI): > 100 µM (inactive)
GI50 (M14): > 100 µM (inactive)
GI50 (UO-31): > 100 µM (inactive)
GI50 (K562): > 100 µM (inactive)
GI50 (SNB-19): > 100 µM (inactive)
GI50 (HOP-18): > 100 µM (inactive)
GI50 (SK-MEL-5): > 100 µM (inactive)
GI50 (HCC 2998): > 100 µM (inactive)
GI50 (SK-OV-3): > 100 µM (inactive)
GI50 (SN12C): > 100 µM (inactive)
GI50 (HL-60): > 100 µM (inactive)
GI50 (OVCAR-3): > 100 µM (inactive)
GI50 (M19-MEL): > 100 µM (inactive)
GI50 (NCI-H23): > 100 µM (inactive)
GI50 (OVCAR-4): > 100 µM (inactive)
GI50 (DMS-114): > 100 µM (inactive)
GI50 (UACC-257): > 100 µM (inactive)
GI50 (MOLT-4): > 100 µM (inactive)
